Source: patent US20240116892A1, “HETEROCYCLIC AMIDE AND UREA COMPOUNDS AS JAK2 INHIBITORS” (Ajax Therapeutics, Inc., priority 2022, published 2024)

target: JAK2 (JH1 domain-catalytic, Y1007F, Y1008F) kinase (Homo sapiens (Human), UniProt O60674, Y1007F/Y1008F); assay: JAK2 JH1 Domain Binding Assay; settings: qPCR readout
How it was run: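 JH1 catalytic domain (Y1007F/Y1008F) expressed as NFkB DNA-binding-domain fusion in HEK293 cells, DNA-tagged. Competition with immobilized biotinylated ligand on streptavidin beads, 1 h at RT in PBS/Tween/BSA/DTT; bound kinase eluted with free ligand and quantified by qPCR.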

Sequence of JAK2 (JH1 domain-catalytic, Y1007F, Y1008F) kinase (O60674 849-1124 Y1007F/Y1008F): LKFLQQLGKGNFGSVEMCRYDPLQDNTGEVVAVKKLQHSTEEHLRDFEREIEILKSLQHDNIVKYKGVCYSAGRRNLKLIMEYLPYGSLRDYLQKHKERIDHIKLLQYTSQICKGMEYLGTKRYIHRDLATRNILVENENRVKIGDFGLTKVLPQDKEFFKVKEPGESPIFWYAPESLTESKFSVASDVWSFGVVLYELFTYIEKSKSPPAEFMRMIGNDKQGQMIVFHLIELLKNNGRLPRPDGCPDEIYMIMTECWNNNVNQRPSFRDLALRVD

Molecule	Kd [nM]
CCN1CCN(Cc2ccc(NC(=O)N(C)C3CCN(c4cnc5[nH]nc(OC)c5c4)CC3)cc2C(F)(F)F)CC1 [Example I-182, 3-(4-((4-ethylpiperazin-1-yl)methyl)-3-(trifluoromethyl)phenyl)-1-(1-(3-methoxy-1H-pyrazolo[3,4-b]pyridin-5-yl)piperidin-4-yl)-1-methylurea]	< 10
(S)-1-methyl-3-(1-methyl-2-oxo-5-(trifluoromethyl)-1,2-dihydropyridin-3-yl)-1-(3-(3-((tetrahydrofuran-3-yl)oxy)-1H-pyrazolo[3,4-b]pyridin-5-yl)bicyclo[1.1.1]pentan-1-yl)urea and (R)-1-methyl-3-(1-methyl-2-oxo-5-(trifluoromethyl)-1,2-dihydropyridin-3-yl)-1-(3-(3-((tetrahydrofuran-3-yl)oxy)-1H-pyrazolo[3,4-b]pyridin-5-yl)bicyclo[1.1.1]pentan-1-yl)urea [Example I-166-a]	50 to 1000
(S)-1-methyl-3-(1-methyl-2-oxo-5-(trifluoromethyl)-1,2-dihydropyridin-3-yl)-1-(3-(3-((tetrahydrofuran-3-yl)oxy)-1H-pyrazolo[3,4-b]pyridin-5-yl)bicyclo[1.1.1]pentan-1-yl)urea and (R)-1-methyl-3-(1-methyl-2-oxo-5-(trifluoromethyl)-1,2-dihydropyridin-3-yl)-1-(3-(3-((tetrahydrofuran-3-yl)oxy)-1H-pyrazolo[3,4-b]pyridin-5-yl)bicyclo[1.1.1]pentan-1-yl)urea [Example I-166-b]	≥ 5000
